# Source: ChEMBL document CHEMBL2413072, “Synthesis and in vitro anticancer studies of novel C-2 arylidene congeners of lantadenes” (2013)
# Key:
# Assay type in all cases: functional
# [1] = tested on: MDA-MB-468; experiment: Growth inhibition of human MDA-MB-468 cells by sulforhodamine B assay
# [2] = tested on: CCRF-CEM; experiment: Growth inhibition of human CCRF-CEM cells assessed as cell growth at 10^-8 M by sulforhodamine B assay; details: read-out: Activity
# [3] = tested on: U-251; experiment: Growth inhibition of human U251 cells by sulforhodamine B assay
# [4] = tested on: MDA-MB-468; experiment: Growth inhibition of human MDA-MB-468 cells assessed as cell growth at 10^-7 M by sulforhodamine B assay; details: read-out: Activity
# [5] = tested on: SNB-19; experiment: Growth inhibition of human SNB19 cells assessed as cell growth at 10^-8 M by sulforhodamine B assay; details: read-out: Activity
# [6] = tested on: HCT-15; experiment: Growth inhibition of human HCT15 cells assessed as cell growth at 10^-6 M by sulforhodamine B assay; details: read-out: Activity
# [7] = tested on: SK-MEL-5; experiment: Growth inhibition of human SK-MEL-5 cells by sulforhodamine B assay
# [8] = tested on: K562; experiment: Growth inhibition of human K562 cells assessed as cell growth at 10^-8 M by sulforhodamine B assay; details: read-out: Activity
# [9] = tested on: SNB-19; experiment: Growth inhibition of human SNB19 cells by sulforhodamine B assay
# [10] = tested on: MOLT-4; experiment: Growth inhibition of human MOLT4 cells assessed as cell growth at 10^-8 M by sulforhodamine B assay; details: read-out: Activity
# [11] = tested on: M14; experiment: Growth inhibition of human M14 cells assessed as cell growth at 10^-4 M by sulforhodamine B assay; details: read-out: Activity
# [12] = tested on: MDA-MB-435; experiment: Growth inhibition of human MDA-MB-435 cells assessed as cell growth at 10^-6 M by sulforhodamine B assay; details: read-out: Activity
# [13] = tested on: PC-3; experiment: Growth inhibition of human PC3 cells assessed as cell growth at 10^-6 M by sulforhodamine B assay; details: read-out: Activity
# [14] = tested on: OVCAR-3; experiment: Growth inhibition of human OVCAR3 cells assessed as cell growth at 10^-4 M by sulforhodamine B assay; details: read-out: Activity
# [15] = tested on: MDA-MB-435; experiment: Growth inhibition of human MDA-MB-435 cells assessed as cell growth at 10^-4 M by sulforhodamine B assay; details: read-out: Activity
# [16] = tested on: Malme-3M; experiment: Growth inhibition of human MALME-3M cells assessed as cell growth at 10^-4 M by sulforhodamine B assay; details: read-out: Activity
# [17] = Growth inhibition of human HCC2998 cells assessed as cell growth at 10^-8 M by sulforhodamine B assay; details: HCC 2998, read-out: Activity
# [18] = tested on: BT-549; experiment: Growth inhibition of human BT549 cells by sulforhodamine B assay
# [19] = tested on: SN12C; experiment: Growth inhibition of human SN12C cells assessed as cell growth at 10^-6 M by sulforhodamine B assay; details: read-out: Activity
# [20] = tested on: K562; experiment: Growth inhibition of human K562 cells by sulforhodamine B assay
# [21] = Growth inhibition of human Hs 578T cells assessed as cell growth at 10^-8 M by sulforhodamine B assay; details: read-out: Activity
# [22] = tested on: NCI-H226; experiment: Growth inhibition of human NCI-H226 cells assessed as cell growth at 10^-6 M by sulforhodamine B assay; details: read-out: Activity
# [23] = tested on: UACC-257; experiment: Growth inhibition of human UACC257 cells assessed as cell growth at 10^-8 M by sulforhodamine B assay; details: read-out: Activity
# [24] = tested on: SNB-19; experiment: Growth inhibition of human SNB19 cells assessed as cell growth at 10^-7 M by sulforhodamine B assay; details: read-out: Activity
# [25] = tested on: NCI-H522; experiment: Growth inhibition of human NCI-H522 cells assessed as cell growth at 10^-7 M by sulforhodamine B assay; details: read-out: Activity
# [26] = tested on: MDA-MB-468; experiment: Growth inhibition of human MDA-MB-468 cells assessed as cell growth at 10^-8 M by sulforhodamine B assay; details: read-out: Activity
# [27] = tested on: HOP-62; experiment: Growth inhibition of human HOP62 cells by sulforhodamine B assay
# [28] = tested on: SK-OV-3; experiment: Growth inhibition of human SKOV3 cells assessed as cell growth at 10^-4 M by sulforhodamine B assay; details: read-out: Activity
# [29] = tested on: SF-295; experiment: Growth inhibition of human SF295 cells assessed as cell growth at 10^-4 M by sulforhodamine B assay; details: read-out: Activity
# [30] = tested on: SN12C; experiment: Growth inhibition of human SN12C cells by sulforhodamine B assay
# [31] = Growth inhibition of human HCC2998 cells assessed as cell growth at 10^-4 M by sulforhodamine B assay; details: HCC 2998, read-out: Activity
# [32] = tested on: MDA-MB-231; experiment: Growth inhibition of human MDA-MB-231 cells assessed as cell growth at 10^-4 M by sulforhodamine B assay; details: read-out: Activity
# [33] = tested on: SK-MEL-2; experiment: Growth inhibition of human SK-MEL-2 cells assessed as cell growth at 10^-7 M by sulforhodamine B assay; details: read-out: Activity
# [34] = tested on: HOP-62; experiment: Growth inhibition of human HOP62 cells assessed as cell growth at 10^-7 M by sulforhodamine B assay; details: read-out: Activity
# [35] = tested on: IGROV-1; experiment: Growth inhibition of human IGROV1 cells by sulforhodamine B assay
# [36] = tested on: OVCAR-3; experiment: Growth inhibition of human OVCAR3 cells assessed as cell growth at 10^-6 M by sulforhodamine B assay; details: read-out: Activity
# [37] = tested on: Malme-3M; experiment: Growth inhibition of human MALME-3M cells assessed as cell growth at 10^-8 M by sulforhodamine B assay; details: read-out: Activity
# [38] = tested on: SN12C; experiment: Growth inhibition of human SN12C cells assessed as cell growth at 10^-4 M by sulforhodamine B assay; details: read-out: Activity
# [39] = tested on: ACHN; experiment: Growth inhibition of human ACHN cells assessed as cell growth at 10^-4 M by sulforhodamine B assay; details: read-out: Activity
# [40] = read-out: LC50 (the source's name)
# [41] = read-out: pLC50 (the source's name) (converted)
smiles,measurement,setting,value
CC(C)=CC(=O)O[C@@H]1CC(C)(C)C[C@H]2C3=CC[C@@H]4[C@@]5(C)CC[C@H](O)C(C)(C)[C@@H]5CC[C@@]4(C)[C@]3(C)CC[C@@]12C(=O)O [Reduced Lantadene B],GI50,[1]; read-out: GI50,4.17 µM
same,CC50,[1]; [40],57.1 µM
same,TGI,[1]; read-out: TGI,20.2 µM
same,GI50,[1]; read-out: pGI50 (converted),4.17 µM
same,CC50,[1]; [41],57.5 µM
same,TGI,[1]; read-out: pTGI (converted),20 µM
same,growth at 0.01 µM,[2],103%
same,GI50,[3]; read-out: GI50,2.62 µM
same,CC50,[3]; [40],71.6 µM
same,TGI,[3]; read-out: TGI,16.7 µM
same,GI50,[3]; read-out: pGI50 (converted),2.63 µM
same,CC50,[3]; [41],70.8 µM
same,TGI,[3]; read-out: pTGI (converted),16.6 µM
same,growth at 0.1 µM,[4],98%
same,growth at 0.01 µM,[5],93%
same,growth at 1 µM,[6],58%
same,GI50,[7]; read-out: GI50,2.86 µM
same,CC50,[7]; [40],66.7 µM
same,TGI,[7]; read-out: TGI,16.5 µM
same,GI50,[7]; read-out: pGI50 (converted),2.88 µM
same,CC50,[7]; [41],66.1 µM
same,TGI,[7]; read-out: pTGI (converted),16.6 µM
same,growth at 0.01 µM,[8],114%
same,GI50,[9]; read-out: GI50,4.93 µM
same,CC50,[9]; [40],74.4 µM
same,TGI,[9]; read-out: TGI,22.5 µM
same,GI50,[9]; read-out: pGI50 (converted),4.9 µM
same,CC50,[9]; [41],74.1 µM
same,TGI,[9]; read-out: pTGI (converted),22.4 µM
same,growth at 0.01 µM,[10],106%
same,growth at 100 µM,[11],-69%
same,growth at 1 µM,[12],95%
same,growth at 1 µM,[13],67%
same,growth at 100 µM,[14],-83%
same,growth at 100 µM,[15],-26%
same,growth at 100 µM,[16],-46%
same,growth at 0.01 µM,[17],99%
same,GI50,[18]; read-out: GI50,6.61 µM
same,CC50,[18]; [40],72.1 µM
same,TGI,[18]; read-out: TGI,24.2 µM
same,GI50,[18]; read-out: pGI50 (converted),6.61 µM
same,CC50,[18]; [41],72.4 µM
same,TGI,[18]; read-out: pTGI (converted),24 µM
same,growth at 1 µM,[19],89%
same,GI50,[20]; read-out: GI50,3.38 µM
same,LC50,[20]; read-out: LC50,> 100 µM
same,TGI,[20]; read-out: TGI,93.1 µM
same,GI50,[20]; read-out: pGI50 (converted),3.39 µM
same,LC50,[20]; read-out: pLC50 (converted),> 100 µM
same,TGI,[20]; read-out: pTGI (converted),93.3 µM
same,growth at 0.01 µM,[21],96%
same,growth at 1 µM,[22],86%
same,growth at 0.01 µM,[23],96%
same,growth at 0.1 µM,[24],86%
same,growth at 0.1 µM,[25],102%
same,growth at 0.01 µM,[26],92%
same,GI50,[27]; read-out: GI50,7.47 µM
same,LC50 (concentration killing 50% of cells),[27]; read-out: LC50,79.8 µM
same,TGI,[27]; read-out: TGI,26.6 µM
same,GI50,[27]; read-out: pGI50 (converted),7.41 µM
same,LC50 (concentration killing 50% of cells),[27]; read-out: pLC50 (converted),79.4 µM
same,TGI,[27]; read-out: pTGI (converted),26.3 µM
same,growth at 100 µM,[28],-62%
same,growth at 100 µM,[29],-71%
same,GI50,[30]; read-out: GI50,2.88 µM
same,CC50,[30]; [40],37 µM
same,TGI,[30]; read-out: TGI,10.9 µM
same,GI50,[30]; read-out: pGI50 (converted),2.88 µM
same,CC50,[30]; [41],37.2 µM
same,TGI,[30]; read-out: pTGI (converted),11 µM
same,growth at 100 µM,[31],-66%
same,growth at 100 µM,[32],-79%
same,growth at 0.1 µM,[33],95%
same,growth at 0.1 µM,[34],87%
same,GI50,[35]; read-out: GI50,6.35 µM
same,CC50,[35]; [40],> 100 µM
same,TGI,[35]; read-out: TGI,29.4 µM
same,GI50,[35]; read-out: pGI50 (converted),6.31 µM
same,CC50,[35]; [41],> 100 µM
same,TGI,[35]; read-out: pTGI (converted),29.5 µM
same,growth at 1 µM,[36],86%
same,growth at 0.01 µM,[37],94%
same,growth at 100 µM,[38],-91%
same,growth at 100 µM,[39],-75%
